Measurements published in PMC12261219, “Comparative Evaluation of Thiol- and Amine-Conjugating Moieties for Endogenous Albumin Binding after Intravenous Administration” (ACS Pharmacology & Translational Science, 2025).
Several values for one entry are separate records, joined by “and”; a condition that tells them apart may be missing. Equal values may be shown once.

Assays:
[1] = biological target: T1, albumin (Homo sapiens, UniProt P02768); assay: SEC-ICP-MS with single serum protein solution: albumin; assay type: binding; conditions: 200 μM albumin, 100 μM compound, 100 mM PB pH 7.4, 37 °C, 2 h
T1 construct: purchased Sigma-Aldrich A8763
Procedure: (§1) All investigated proteins were purchased from commercial suppliers: Albumin (Sigma-Aldrich, A8763), IgG (Athens Research, 16–16–090707), α1-antitrypsin (Sigma-Aldrich, A6150) and apotransferrin (Sigma-Aldrich, T1147). […] The compound stocks were diluted into the protein solution to reach a final concentration of 100 μM (27 μL protein and 3 μL compound). The samples were incubated at 37 °C for 2 h and analyzed as described for the SEC-ICP-MS studies (Tables S6 and S7).

[2] = biological target: T2, albumin (mouse serum) (Mus musculus, UniProt P07724); assay: SEC-ICP-MS albumin binding in mouse serum; assay type: in vitro ADME; conditions: for Pt195 in HMWF (albumin-bound) / Pt195 in LMWF: 100 µM, 37 °C
T2 construct: The serum was separated by centrifugation (two times 10 min at 900 g) after 10–20 min clotting at room temperature; from tissue; host or cells: serum of Balb/c mice
Procedure: Blood of Bab/c mice was collected under anesthesia via heart puncture. […] Human serum was purchased from Sigma-Aldrich. In order to guarantee a stable pH, all sera were buffered with 150 mM phosphate to pH 7.4 by dissolving the necessary amounts of Na2HPO4 and NaH2PO4 directly in the serum. […] The samples were then incubated in the autosampler at 37 °C and analyzed every hour for 4 or 5 h and after 24 h. Between each sample a pure water blank was measured. For measurements with 10 min intervals the same procedure was followed, but the blank measurements were omitted. For SEC-ICP-MS measurements an Agilent 1260 Infinity system coupled to an Agilent 7800 ICP-HRMS equipped with a dynamic reaction cell was used. Oxygen (purity 5.5, Messer Austria GmbH, Gumpoldskirchen, Austria) was used as reaction gas.

[3] = Serum pharmacokinetics (platinum, ICP-MS) in CT26-bearing Balb/c mice; conditions: for Cmax / Percentage of AUCPt_0-∞ extrapolated from tlast to infinity / Half-life / CL / Vz: serum platinum; for Cmax: measured at tmax=0.08 h; for Cmax / CL: single i.v. dose 4.42 mg/kg Pt; for Percentage of AUCPt_0-∞ extrapolated from tlast to infinity: tlast=24 h; for Half-life: terminal half-life; for CL: total body clearance; for Vz: volume of distribution based on the terminal phase
Procedure: CT26 cells (5 × 10^5 in 50 μL serum-free medium) were injected subcutaneously (s.c.) into the right flank of male Balb/c mice. […] The blood, tumor and organ collection followed the study design in Figure A. Briefly, to assess serum platinum levels, blood was collected after 5 min, 30 min, 5 h and 24 h (2 mice per time point) via the facial vein. The serum was separated by centrifugation (two times 10 min at 900 g) after 10 min clotting at room temperature. […] All collected samples were stored at −20 °C and further processed for platinum measurements via ICP-MS as follows: HNO3 (67–69%, suprapur for trace metal analysis, NORMATOM; Distributor: VWR international, Austria) and conc. H2O2 suprapur (Merck, 30%) were used without further purification. Digestion of tissue (approximately 15–30 mg gravimetrically weighted) was performed with 2 mL of approximately 20% HNO3 and 100 μL H2O2 using an open vessel graphite digestion system (coated graphite heating plate, coated sample holder-top for 25 mL vials, PFA vials and PFA lids; Labter, ODLAB; Distributor: AHF Analysentechnik AG; Germany). Digested samples were diluted in Milli-Q water (18.2 MΩ cm, Milli-Q Advantage, Darmstadt, Germany). For the ICP-MS analysis, platinum and rhenium standards were derived from CPI International (Amsterdam, The Netherlands). The total platinum content was determined with a quadrupole-based Agilent 7800 ICP-MS instrument (Agilent Technologies, Tokyo, Japan) equipped with the Agilent SPS 4 autosampler (Agilent Technologies, Tokyo, Japan) and a MicroMist nebulizer at a sample uptake rate of approximately 0.2 mL/min. An RF power of 1550 W was used as well as nickel cones. Argon was used as plasma gas (15 L/min) and as carrier gas (∼1.1 L/min). The dwell time was set to 0.1 s and the measurements were performed in 6 replicates with 100 sweeps. Rhenium served as internal standard for platinum. The Agilent MassHunter software package (Workstation Software, version C.01.04) was used for data processing.
As platinum was measured in serum, equimolar administered doses were adjusted to correspond to platinum (0.0227 mmol, 4.42 mg platinum). The area under the “concentration”–time curve (AUC) was determined from time 0 to infinity (AUCPt_0‑∞) and from time 0 to 24 h (AUCPt_0–24, based on the last observed sample at 24 h; linear-log trapezoidal calculation method). The terminal slope (λ z ) was determined based on the last two (out of four) measurements (times 5 h and 24 h).

[4] = tested on: IgG; assay: SEC-ICP-MS with single serum protein solution: IgG; assay type: binding, human; conditions: 200 μM IgG, 100 μM compound, 100 mM PB pH 7.4, 37 °C, 2 h
Procedure: as §1

[5] = biological target: T3, apotransferrin (Homo sapiens, UniProt P02787); assay: SEC-ICP-MS with single serum protein solution: apotransferrin; assay type: binding; conditions: 200 μM apotransferrin, 100 μM compound, 100 mM PB pH 7.4, 37 °C, 2 h
T3 construct: purchased Sigma-Aldrich T1147
Procedure: as §1

[6] = Hydrolytic stability in buffer (HPLC); assay type: physicochemical; conditions: for Intact compound after 25 h: 0.5 mM
Procedure: The samples were incubated at 20 °C and measured over 25 h. Reversed phase high-performance liquid chromatography (RP-HPLC) runs were performed using a Waters Acquity UPLC BEH C18 column (130 Å, 1.7 μm, 3 mm × 50 mm) on a Dionex Thermo Scientific UltiMate 3000 HPLC system, equipped with a HPG-3400RS binary pump and a DAD-3000 UV–vis detector. Chromatograms were evaluated at a wavelength of 220 nm. Milli-Q water (mobile phase A) and acetonitrile (mobile phase B), both containing 0.1% TFA, were used as eluents. The flow rate was consistent at 0.6 mL/min for all measurements using the following gradient: 0–0.5 min A 95:5 B, 0.5–5.5 min linear gradient to A 5:95 B, 5.5–6.5 min A 5:95 B, 6.5–9.2 min A 95:5 B. The same conditions were applied for stability measurements in 100 mM PB at pH 5.5 and 6.5 as well as in 20 mM HEPES and MOPS at pH 7.4. RP-HPLC-MS analyses of the same samples after the stability measurements were conducted on a Waters Acquity UPLC BEH C18 column (130 Å, 1.7 μm, 3 mm × 50 mm) on an Agilent 1260 Infinity II system equipped with a Flexible pump, a 1260 VWD UV–vis detector and the LC–MSD system. Chromatograms were evaluated at a wavelength of 220 nm. Milli-Q water (mobile phase A) and acetonitrile (mobile phase B), both containing 0.1% formic acid, were used as eluents. The flow rate was consistent at 0.6 mL/min for all measurements using the following gradient: 0–0.5 min A 95:5 B, 0.5–6.0 min linear gradient to A 5:95 B, 6.0–7.0 min A 5:95 B, 7.0–7.1 min linear gradient to A 95:5 B, 7.1–8.0 min A 95:5 B.

[7] = Reduction with ascorbic acid, release of oxaliplatin (HPLC); assay type: physicochemical; conditions: 0.5 mM, 150 mM PB, pH 7.4, 20 °C, 30 eq. ascorbic acid
Procedure: The samples were incubated at 20 °C and measured over 25 h. […] RP-HPLC runs were performed using a Waters Acquity UPLC HSS T3 column (100 Å, 1.8 μm, 3.0 mm × 50 mm) on a Dionex Thermo Scientific UltiMate 3000 HPLC system, equipped with a HPG-3400RS binary pump and a DAD-3000RS UV–vis detector. Chromatograms were evaluated at a wavelength of 230 nm. Milli-Q water (mobile phase A) and acetonitrile (mobile phase B), both containing 0.1% TFA, were used as eluents. The flow rate was consistent at 0.6 mL/min for all measurements using the following gradient: 0–0.5 min A 99:1 B, 0.5–5.5 min linear gradient to A 1:99 B, 5.5–6.5 min A 1:99 B, 6.5–9.2 min A 99:1 B.

[8] = biological target: T4, α1-antitrypsin (Homo sapiens, UniProt P01009); assay: SEC-ICP-MS with single serum protein solution: α1-antitrypsin; assay type: binding; conditions: 200 μM α1-antitrypsin, 100 μM compound, 100 mM PB pH 7.4, 37 °C, 2 h
T4 construct: purchased Sigma-Aldrich A6150
Procedure: as §1

[9] = pH 7.4, 10 min intervals, 0 min
[10] = pH 7.4, 10 min intervals, 10 min
[11] = pH 7.4, 10 min intervals, 20 min
[12] = pH 7.4, 10 min intervals, 30 min
[13] = pH 7.4, 10 min intervals, 40 min
[14] = pH 7.4, 10 min intervals, 50 min
[15] = pH 7.4, 10 min intervals, 60 min

T2 sequence (P07724 25-608): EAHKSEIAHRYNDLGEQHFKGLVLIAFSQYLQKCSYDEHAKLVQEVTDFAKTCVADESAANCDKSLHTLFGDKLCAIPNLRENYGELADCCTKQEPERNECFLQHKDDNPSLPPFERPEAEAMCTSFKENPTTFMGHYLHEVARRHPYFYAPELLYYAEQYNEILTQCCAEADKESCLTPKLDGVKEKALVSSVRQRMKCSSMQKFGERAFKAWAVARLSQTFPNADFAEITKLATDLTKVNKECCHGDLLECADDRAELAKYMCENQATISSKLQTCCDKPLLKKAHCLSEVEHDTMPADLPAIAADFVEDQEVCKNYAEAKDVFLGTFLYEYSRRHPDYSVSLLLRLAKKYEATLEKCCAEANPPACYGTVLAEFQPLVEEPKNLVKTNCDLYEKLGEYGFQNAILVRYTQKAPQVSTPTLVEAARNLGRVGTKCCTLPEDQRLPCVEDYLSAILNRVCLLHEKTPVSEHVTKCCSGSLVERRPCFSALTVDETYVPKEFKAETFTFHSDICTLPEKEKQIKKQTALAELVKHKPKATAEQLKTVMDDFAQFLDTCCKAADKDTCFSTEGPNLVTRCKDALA
T1 sequence (P02768 25-609): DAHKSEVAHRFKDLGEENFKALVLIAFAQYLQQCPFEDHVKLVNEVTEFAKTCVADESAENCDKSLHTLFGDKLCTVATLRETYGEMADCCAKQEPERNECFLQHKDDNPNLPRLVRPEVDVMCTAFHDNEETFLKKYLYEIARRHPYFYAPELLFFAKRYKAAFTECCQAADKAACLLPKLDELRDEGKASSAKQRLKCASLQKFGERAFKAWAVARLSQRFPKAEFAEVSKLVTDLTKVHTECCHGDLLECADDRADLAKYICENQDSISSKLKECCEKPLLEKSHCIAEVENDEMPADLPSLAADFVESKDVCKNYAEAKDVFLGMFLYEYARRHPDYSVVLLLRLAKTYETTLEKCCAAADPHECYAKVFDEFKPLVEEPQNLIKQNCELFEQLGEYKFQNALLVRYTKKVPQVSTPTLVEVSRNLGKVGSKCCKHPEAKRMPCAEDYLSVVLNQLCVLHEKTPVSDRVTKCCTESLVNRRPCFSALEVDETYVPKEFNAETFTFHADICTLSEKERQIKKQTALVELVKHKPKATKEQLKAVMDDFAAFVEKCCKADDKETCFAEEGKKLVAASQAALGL
T4 sequence (P01009 25-418): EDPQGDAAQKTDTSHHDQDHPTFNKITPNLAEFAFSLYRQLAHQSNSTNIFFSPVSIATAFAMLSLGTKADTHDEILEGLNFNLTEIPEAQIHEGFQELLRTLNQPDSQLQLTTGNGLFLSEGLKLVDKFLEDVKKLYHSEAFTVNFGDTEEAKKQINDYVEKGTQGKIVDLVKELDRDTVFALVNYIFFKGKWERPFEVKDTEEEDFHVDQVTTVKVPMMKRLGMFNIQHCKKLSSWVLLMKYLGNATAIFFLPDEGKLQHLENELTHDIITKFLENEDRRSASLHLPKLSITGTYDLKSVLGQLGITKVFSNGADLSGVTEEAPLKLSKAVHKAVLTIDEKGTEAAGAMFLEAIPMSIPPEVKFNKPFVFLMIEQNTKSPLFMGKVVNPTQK
T3 sequence (P02787 20-698): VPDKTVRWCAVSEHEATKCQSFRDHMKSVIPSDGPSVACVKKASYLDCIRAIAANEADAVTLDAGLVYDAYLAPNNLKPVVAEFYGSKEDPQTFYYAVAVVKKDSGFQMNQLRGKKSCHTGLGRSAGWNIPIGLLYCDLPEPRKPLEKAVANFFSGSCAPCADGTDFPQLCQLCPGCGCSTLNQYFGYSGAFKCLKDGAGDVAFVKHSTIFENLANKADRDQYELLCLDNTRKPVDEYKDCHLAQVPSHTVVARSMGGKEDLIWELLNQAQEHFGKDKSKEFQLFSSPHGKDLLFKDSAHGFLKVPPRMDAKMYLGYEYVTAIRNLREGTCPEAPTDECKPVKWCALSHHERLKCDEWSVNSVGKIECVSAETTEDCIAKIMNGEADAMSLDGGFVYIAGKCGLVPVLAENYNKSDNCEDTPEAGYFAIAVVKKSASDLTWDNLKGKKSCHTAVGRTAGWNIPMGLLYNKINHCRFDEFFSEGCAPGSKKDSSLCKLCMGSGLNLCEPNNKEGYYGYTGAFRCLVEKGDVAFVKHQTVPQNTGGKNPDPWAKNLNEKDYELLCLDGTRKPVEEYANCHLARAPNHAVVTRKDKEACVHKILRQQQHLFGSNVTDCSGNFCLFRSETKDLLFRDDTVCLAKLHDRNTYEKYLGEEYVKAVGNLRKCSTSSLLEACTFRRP

## CC(=O)[O][Pt-2]12([O]C(=O)NCCOCCOCCOCCOc3ccc(-c4nnc(S(C)(=O)=O)o4)cc3)([NH2+][C@@H]3CCCC[C@H]3[NH2+]1)[O]C(=O)C(=O)[O]2 [PODS-Ox-OAc, (OC-6–34)-Acetato[(1R,2R)-1,2-cyclohexane-1,2-diamino][(2-(2-(2-(2-(4-(5-(methylsulfonyl)-1,3,4-oxadiazol-2-yl)-phenoxy)-ethoxy)-ethoxy)-ethoxy)-ethyl)-carbamato]-oxalato platinum(IV)]
[1]
  Platinum in the HMWF (protein-bound): 69%
[2]; [9]
  Pt195 in HMWF (albumin-bound): 34%
  Pt195 in LMWF: 66%
[2]; [10]
  Pt195 in HMWF (albumin-bound): 59% and ~60%
  Pt195 in LMWF: 41%
[2]; [11]
  Pt195 in HMWF (albumin-bound): 71%
  Pt195 in LMWF: 29%
[2]; [12]
  Pt195 in HMWF (albumin-bound): 78%
  Pt195 in LMWF: 22%
[2]; [13]
  Pt195 in HMWF (albumin-bound): 83%
  Pt195 in LMWF: 17%
[2]; [14]
  Pt195 in HMWF (albumin-bound): 85%
  Pt195 in LMWF: 15%
[2]; [15]
  Pt195 in HMWF (albumin-bound): 87%
  Pt195 in LMWF: 13%
[2]; pH 7.4, 1 h intervals, 0 h
  Pt195 in HMWF (albumin-bound): 30%
  Pt195 in LMWF: 70%
[2]; pH 7.4, 1 h intervals, 1 h
  Pt195 in HMWF (albumin-bound): 82% and ~80%
  Pt195 in LMWF: 18%
[2]; pH 7.4, 1 h intervals, 2 h
  Pt195 in HMWF (albumin-bound): 80%
  Pt195 in LMWF: 20%
[2]; pH 7.4, 1 h intervals, 3 h
  Pt195 in HMWF (albumin-bound): 80%
  Pt195 in LMWF: 20%
[2]; pH 7.4, 1 h intervals, 4 h
  Pt195 in HMWF (albumin-bound): 79%
  Pt195 in LMWF: 21%
[2]; pH 7.4, 1 h intervals, 24 h
  Pt195 in HMWF (albumin-bound): 80%
  Pt195 in LMWF: 20%
[3]; at 5 and 30 min, i.v.
  Serum platinum level higher than after Mal-Ox-OAc treatment: about 50%
[3]
  Cmax: 52.5 mg/kg
  Percentage of AUCPt_0-∞ extrapolated from tlast to infinity: 25.5%
  CL: 0.00693 kg/h/kg
[3]; i.v.
  Half-life: 13.6 h
  Vz: 0.136 kg/kg
[4]
  Platinum in the HMWF (protein-bound): less than 20%
[5]
  Platinum in the HMWF (protein-bound): less than 10%
[6]; 20 mM HEPES, pH 7.4, 20 °C
  Intact compound after 25 h: 54%
[6]; 20 mM MOPS, pH 7.4, 20 °C
  Intact compound after 25 h: 76%
[6]; 100 mM PB, pH 5.5, 20 °C
  Intact compound after 25 h: 99%
[6]; 100 mM PB, pH 6.5, 20 °C
  Intact compound after 25 h: 94%
[6]; 100 mM PB, pH 7.4, 20 °C
  Intact compound after 25 h: 70%
[7]
  Oxaliplatin detected (released) after 25 h: 9%
[8]
  Platinum in the HMWF (protein-bound): ~30%

## CC(=O)[O][Pt-2]12([O]C(=O)NCCOCCOCCOCCOC(=O)C3=CCCCC3S(=O)(=O)Nc3ccc(F)cc3F)([NH2+]C3CCCCC3[NH2+]1)[O]C(=O)C(=O)[O]2 (mixture of isomers) [DFSA-Ox-OAc, (OC-6–34)-Acetato[(1R,2R)-1,2-cyclohexane-1,2-diamino][(1-(6-(N-(2,4-difluorophenyl)-sulfamoyl)-cyclohex-1-en-1-yl)-1-oxo-2,5,8,11-tetraoxatridecan-13-yl)-carbamato]-oxalato platinum(IV)]
[1]
  Platinum in the HMWF (protein-bound): 26%
[2]; [9]
  Pt195 in HMWF (albumin-bound): 2%
  Pt195 in LMWF: 98%
[2]; [10]
  Pt195 in HMWF (albumin-bound): 18%
  Pt195 in LMWF: 82%
[2]; [11]
  Pt195 in HMWF (albumin-bound): 32%
  Pt195 in LMWF: 68%
[2]; [12]
  Pt195 in HMWF (albumin-bound): 43%
  Pt195 in LMWF: 57%
[2]; [13]
  Pt195 in HMWF (albumin-bound): 52%
  Pt195 in LMWF: 48%
[2]; [14]
  Pt195 in HMWF (albumin-bound): 58%
  Pt195 in LMWF: 42%
[2]; [15]
  Pt195 in HMWF (albumin-bound): 63%
  Pt195 in LMWF: 37%
[2]; pH 7.4, 1 h intervals, 0 h
  Pt195 in LMWF: 99%
[2]; pH 7.4, 1 h intervals, 1 h
  Pt195 in HMWF (albumin-bound): 65%
  Pt195 in LMWF: 35%
[2]; pH 7.4, 1 h intervals, 2 h
  Pt195 in HMWF (albumin-bound): 78% and ~80%
  Pt195 in LMWF: 22%
[2]; pH 7.4, 1 h intervals, 3 h
  Pt195 in HMWF (albumin-bound): 82%
  Pt195 in LMWF: 18%
[2]; pH 7.4, 1 h intervals, 4 h
  Pt195 in HMWF (albumin-bound): 82%
  Pt195 in LMWF: 18%
[2]; pH 7.4, 1 h intervals, 24 h
  Pt195 in HMWF (albumin-bound): 70%
  Pt195 in LMWF: 30%
[2]; reached after several hours
  Maximum albumin binding: 82%
[3]
  Cmax: 4.61 mg/kg
  Percentage of AUCPt_0-∞ extrapolated from tlast to infinity: 45.6%
  CL: 0.0685 kg/h/kg
[3]; i.v.
  Half-life: 21.9 h
  Vz: 2.17 kg/kg
[4]
  Platinum in the HMWF (protein-bound): < 5%
[5]
  Platinum in the HMWF (protein-bound): < 5%
[6]; 20 mM HEPES, pH 7.4, 20 °C
  Intact compound after 25 h: stable
[6]; 20 mM MOPS, pH 7.4, 20 °C
  Intact compound after 25 h: stable
[6]; 100 mM PB, pH 5.5, 20 °C
  Intact compound after 25 h: stable
[6]; 100 mM PB, pH 6.5, 20 °C
  Intact compound after 25 h: stable
[6]; 100 mM PB, pH 7.4, 20 °C
  Intact compound after 25 h: 97%
[6]; PB pH 5.5, 6.5, 7.4, HEPES and MOPS pH 7.4, 20 °C, 25 h
  Hydrolytic stability in all tested conditions: stable
[7]
  Oxaliplatin detected (released) after 25 h: 10%
[8]
  Platinum in the HMWF (protein-bound): 20%
